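At the GI50, growth is halved. The concentration for full growth arrest is given as TGI.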
Key:
Assay in all cases: DTP human tumour cell line panel, 384-well format
SF-295 CNS = tested on: SF-295 CNS
U251 glioblastoma = tested on: U251 glioblastoma
SF-268 CNS = tested on: SF-268 CNS
NCI-H522 lung = tested on: NCI-H522 lung
NCI-H322M lung = tested on: NCI-H322M lung
RXF 393 renal = tested on: RXF 393 renal
CCRF-CEM leukemia = tested on: CCRF-CEM leukemia
HL-60(TB) leukemia = tested on: HL-60(TB) leukemia
ACHN renal = tested on: ACHN renal
SW-620 colon = tested on: SW-620 colon
UACC-62 melanoma = tested on: UACC-62 melanoma
KM12 colon = tested on: KM12 colon
UO-31 renal = tested on: UO-31 renal
A498 renal = tested on: A498 renal
MALME-3M melanoma = tested on: MALME-3M melanoma
MDA-MB-231 breast = tested on: MDA-MB-231 breast
SN12C renal = tested on: SN12C renal
HCC-2998 colon = tested on: HCC-2998 colon
OVCAR-4 ovarian = tested on: OVCAR-4 ovarian
NCI/ADR-RES ovarian = tested on: NCI/ADR-RES ovarian
HCT-15 colon = tested on: HCT-15 colon
NCI-H23 lung = tested on: NCI-H23 lung
HCT-116 colon = tested on: HCT-116 colon
BT-549 breast = tested on: BT-549 breast
RPMI-8226 leukemia = tested on: RPMI-8226 leukemia
HOP-92 NSCLC = tested on: HOP-92 NSCLC
DU-145 prostate = tested on: DU-145 prostate
M14 melanoma = tested on: M14 melanoma
K-562 leukemia = tested on: K-562 leukemia
NCI-H460 NSCLC = tested on: NCI-H460 NSCLC
SR leukemia = tested on: SR leukemia
SNB-19 CNS = tested on: SNB-19 CNS
LOX IMVI melanoma = tested on: LOX IMVI melanoma
A549 NSCLC = tested on: A549 NSCLC
SK-MEL-28 melanoma = tested on: SK-MEL-28 melanoma
HOP-62 NSCLC = tested on: HOP-62 NSCLC
MDA-MB-435 melanoma = tested on: MDA-MB-435 melanoma
CAKI-1 renal = tested on: CAKI-1 renal
PC-3 prostate = tested on: PC-3 prostate
MOLT-4 leukemia = tested on: MOLT-4 leukemia
OVCAR-3 ovarian = tested on: OVCAR-3 ovarian
SF-539 CNS = tested on: SF-539 CNS
IGROV1 ovarian = tested on: IGROV1 ovarian
MDA-MB-468 breast = tested on: MDA-MB-468 breast
UACC-257 melanoma = tested on: UACC-257 melanoma
MCF7 breast = tested on: MCF7 breast
SNB-75 CNS = tested on: SNB-75 CNS
SK-MEL-5 melanoma = tested on: SK-MEL-5 melanoma
COLO 205 colon = tested on: COLO 205 colon
NCI-H226 lung = tested on: NCI-H226 lung
HT29 colon = tested on: HT29 colon
OVCAR-8 ovarian = tested on: OVCAR-8 ovarian
EKVX NSCLC = tested on: EKVX NSCLC
TK-10 renal = tested on: TK-10 renal
786-0 renal = tested on: 786-0 renal
HS 578T breast = tested on: HS 578T breast
T-47D breast = tested on: T-47D breast
SK-OV-3 ovarian = tested on: SK-OV-3 ovarian

## CNCc1ccc(-c2cc(-c3nc(-c4ccc(S(=O)(=O)C(C)C)cc4)cnc3N)on2)cc1
SF-295 CNS
  GI50: 1060 nM
  TGI: 4100 nM
U251 glioblastoma
  GI50: 460 nM
  TGI: 1660 nM
SF-268 CNS
  GI50: 781 nM
  TGI: 2060 nM
NCI-H522 lung
  GI50: 6610 nM
  TGI: 20200 nM
NCI-H322M lung
  GI50: 139 nM
  TGI: 1180 nM
RXF 393 renal
  GI50: 216 nM
  TGI: 791 nM
CCRF-CEM leukemia
  GI50: 40.9 nM
  TGI: 161 nM
HL-60(TB) leukemia
  GI50: 114 nM
  TGI: 248 nM
ACHN renal
  GI50: 151 nM
  TGI: 1240 nM
SW-620 colon
  GI50: 267 nM
  TGI: 1260 nM
UACC-62 melanoma
  GI50: 1060 nM
  TGI: 2240 nM
KM12 colon
  GI50: 131 nM
  TGI: 559 nM
UO-31 renal
  GI50: 285 nM
  TGI: 1400 nM
A498 renal
  GI50: 42.2 nM
  TGI: 183 nM
MALME-3M melanoma
  GI50: 307 nM
  TGI: 1330 nM
MDA-MB-231 breast
  GI50: 1210 nM
  TGI: 2730 nM
SN12C renal
  GI50: 1290 nM
  TGI: 5490 nM
HCC-2998 colon
  GI50: 29.5 nM
  TGI: 192 nM
OVCAR-4 ovarian
  GI50: 313 nM
  TGI: 1310 nM
NCI/ADR-RES ovarian
  GI50: 1310 nM
  TGI: 2680 nM
HCT-15 colon
  GI50: 127 nM
  TGI: 315 nM
NCI-H23 lung
  GI50: 162 nM
  TGI: 916 nM
HCT-116 colon
  GI50: 242 nM
  TGI: 1330 nM
BT-549 breast
  GI50: 173 nM
  TGI: 489 nM
RPMI-8226 leukemia
  GI50: 132 nM
  TGI: 355 nM
HOP-92 NSCLC
  GI50: 336 nM
  TGI: 1410 nM
DU-145 prostate
  GI50: 250 nM
  TGI: 1320 nM
M14 melanoma
  GI50: 318 nM
  TGI: 1140 nM
K-562 leukemia
  GI50: 250 nM
  TGI: 1170 nM
NCI-H460 NSCLC
  GI50: 57.5 nM
  TGI: 334 nM
SR leukemia
  TGI: 18.5 nM
SNB-19 CNS
  GI50: 1130 nM
  TGI: 2480 nM
LOX IMVI melanoma
  GI50: 303 nM
  TGI: 1400 nM
A549 NSCLC
  GI50: 427 nM
  TGI: 1810 nM
SK-MEL-28 melanoma
  GI50: 1420 nM
  TGI: 2730 nM
HOP-62 NSCLC
  GI50: 291 nM
  TGI: 1460 nM
MDA-MB-435 melanoma
  GI50: 484 nM
  TGI: 1600 nM
CAKI-1 renal
  GI50: 735 nM
  TGI: 2050 nM
PC-3 prostate
  GI50: 506 nM
  TGI: 2040 nM
MOLT-4 leukemia
  GI50: 66.3 nM
  TGI: 204 nM
OVCAR-3 ovarian
  GI50: 145 nM
  TGI: 1500 nM
SF-539 CNS
  GI50: 135 nM
  TGI: 310 nM
IGROV1 ovarian
  GI50: 211 nM
  TGI: 1340 nM
MDA-MB-468 breast
  GI50: 570 nM
  TGI: 1850 nM
UACC-257 melanoma
  GI50: 248 nM
  TGI: 870 nM
MCF7 breast
  GI50: 105 nM
  TGI: 1250 nM
SNB-75 CNS
  GI50: 1150 nM
  TGI: 2380 nM
SK-MEL-5 melanoma
  GI50: 1320 nM
  TGI: 2600 nM
COLO 205 colon
  GI50: 1040 nM
  TGI: 6580 nM
NCI-H226 lung
  GI50: 3070 nM
  TGI: 9520 nM
HT29 colon
  GI50: 324 nM
  TGI: 1060 nM
OVCAR-8 ovarian
  GI50: 534 nM
  TGI: 1770 nM
EKVX NSCLC
  GI50: 1000 nM
  TGI: 2230 nM
TK-10 renal
  GI50: 57.3 nM
  TGI: 347 nM
786-0 renal
  GI50: 150 nM
  TGI: 486 nM
HS 578T breast
  GI50: 138 nM
  TGI: 454 nM
T-47D breast
  GI50: 10400 nM
  TGI: 22200 nM
SK-OV-3 ovarian
  GI50: 242 nM
  TGI: 1360 nM
